Data taken from ChEMBL document CHEMBL1128910, “Time-dependent inactivation of steroid C17(20) lyase by 17-cyclopropyl ether-substituted steroids” (Bioorg Med Chem Lett, 1996).

How the values were obtained:
[1] = biological target: T1, Steroid 17-alpha-hydroxylase/17,20 lyase (Homo sapiens, UniProt P05093); experiment: Inhibition of cynomolgus monkey Cytochrome P450 steroid 17-alpha-hydroxylase/17,20 lyase at 0.1 uM pre-incubation time of 40 minutes
T1 sequence (P05093 whole entry): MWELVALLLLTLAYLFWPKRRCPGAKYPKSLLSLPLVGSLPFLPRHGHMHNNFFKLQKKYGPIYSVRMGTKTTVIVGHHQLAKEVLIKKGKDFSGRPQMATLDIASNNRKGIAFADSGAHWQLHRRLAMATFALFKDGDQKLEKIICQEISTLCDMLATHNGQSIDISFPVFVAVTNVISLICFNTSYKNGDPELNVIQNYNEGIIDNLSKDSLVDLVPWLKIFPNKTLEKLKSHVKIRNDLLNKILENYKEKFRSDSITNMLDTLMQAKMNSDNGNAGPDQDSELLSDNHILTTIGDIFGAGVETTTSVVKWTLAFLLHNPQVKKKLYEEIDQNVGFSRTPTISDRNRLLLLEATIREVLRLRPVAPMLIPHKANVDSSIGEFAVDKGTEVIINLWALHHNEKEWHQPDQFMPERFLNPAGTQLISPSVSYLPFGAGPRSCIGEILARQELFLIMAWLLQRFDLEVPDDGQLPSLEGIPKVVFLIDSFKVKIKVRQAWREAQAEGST

[2] = biological target: T1, Steroid 17-alpha-hydroxylase/17,20 lyase; experiment: Inhibition of cynomolgus monkey Cytochrome P450 steroid 17-alpha-hydroxylase/17,20 lyase at 0.1 uM
[3] = biological target: T1, Steroid 17-alpha-hydroxylase/17,20 lyase; experiment: Inhibition of cynomolgus monkey Cytochrome P450 steroid 17-alpha-hydroxylase/17,20 lyase at 1 uM
[4] = biological target: T1, Steroid 17-alpha-hydroxylase/17,20 lyase; experiment: Inhibition of cynomolgus monkey Cytochrome P450 steroid 17-alpha-hydroxylase/17,20 lyase at 1 uM preincubation time 40 minutes
[5] = biological target: T1, Steroid 17-alpha-hydroxylase/17,20 lyase; experiment: Inhibition of human Cytochrome P450 steroid 17-alpha-hydroxylase/17,20 lyase at 0.8 uM pre-incubation time 30 minutes
[6] = biological target: T1, Steroid 17-alpha-hydroxylase/17,20 lyase; experiment: Inhibition of human Cytochrome P450 steroid 17-alpha-hydroxylase/17,20 lyase at 0.8 uM

SMILES | inhibition at 0.1 µM [1] [%] | inhibition at 0.1 µM [2] [%] | inhibition at 1 µM [3] [%] | inhibition at 1 µM [4] [%] | inhibition at 0.8 µM [5] [%] | inhibition at 0.8 µM [6] [%]
C[C@]12CCC(=O)C=C1C(=O)CC1C2CC[C@@]2(C)C1CC[C@@H]2OC1CC1 (stereo partly specified) | 51 | 17 | 52 | 79 |  | 
C[C@]12CCC(=O)C=C1CCC1C2CC[C@@]2(C)C1CC[C@@H]2OC1CC1 (stereo partly specified) | 55 | 26 | 73 | 90 |  | 
C[C@]12CCC3C(CC=C4C[C@@H](O)[C@H]5COC[C@]43C5)C1CC[C@@H]2OC1CC1 (stereo partly specified) |  |  |  |  | 0 | 0
C[C@]12CCC3C(CCC4=CC(=O)[C@H]5COC[C@]43C5)C1CC[C@@H]2OC1CC1 (stereo partly specified) |  |  |  |  | 17 | 1
CC1(C)C2=CCC3C(CC[C@@]4(C)C3CC[C@@H]4OC3CC3)[C@@]2(C)CC[C@@H]1O (stereo partly specified) |  |  |  |  | 0 | 0
C[C@]12CC[C@H](O)CC1=CCC1C2CC[C@@]2(C)C1CC[C@@H]2OC1CC1 (stereo partly specified) |  |  |  |  | 64 | 11
